Measurements published in patent US20120058204A1, “USE OF OVER EXPRESSION OF CYSTATHIONINE GAMMA LYASE AS A PROGNOSTIC, DIAGNOSTIC AND THERAPEUTIC TARGET FOR CANCER” (NATIONAL CANCER CENTER RESEARCH INSTITUTE, priority 2010, published 2012).

Key:
Format in all cases: cell-based
[1] = tested on: OVTOKO cell line; assay: Drug and growth-inhibitor assay (Cell Titer-Glo cell viability), OVTOKO; conditions: for effect on cell growth: concentration 0.1 g/ml to […], alone
Method: (§1) Cysplatin (CDDP, Randa, molecular weight, 300.5 Da) was purchased from Nippon Kayaku (Tokyo, Japan). Propargylglycine (PPG, molecular weight, 113.11 Da), a specific inhibitor of CTH, was purchased from Sigma-Aldrich. OVISE, OVTOKO, and OVCAR-3 were seeded into opaque-walled 96-well plates in a concentration of 1×10^4 cells/well on the day before adding the drugs. CDDP solution of various concentrations (0, 0.02, 0.1, 0.5, 2.5, and 12.5 µg/ml) was then added to the wells in duplicate. In the following, PPG dissolved in water ([…]) was added. 96 hours after addition of the drugs, cell viability was quantified using the Cell Titer-Glo Luminescent Cell Viability Assay (Promega, Madison, Wis.). Luminescence activity was measured with a GloMAx96 Microplate Luminometer (Promega).
(§2) The protein expression of CTH was examined in 9 ovarian cancer cell lines by western blot analysis. Among all the ovarian cell lines, CTH expression was only observed in OVISE and OVTOKO (FIG. 5E). […] There was a positive correlation between protein expression of CTH and IC50 of CDDP in ovarian cancer cell lines (FIG. 5 F-H). The IC50s of propargylglycine, a specific inhibitor of CTH, were also analyzed in these cell lines. Propargylglycine at a concentration ranging from […] to 10 µg/ml had no effect on cell growth of these cell lines. Thus, combination of CDDP and propargylglycine (FIG. 5 I-K) was also examined.

[2] = tested on: OVISE cell line; assay: Drug and growth-inhibitor assay (Cell Titer-Glo cell viability), OVISE; conditions: for effect on cell growth: concentration 0.1 g/ml to […], alone
Method: as §1, §2

[3] = tested on: OVCAR3 cell line; assay: Drug and growth-inhibitor assay (Cell Titer-Glo cell viability), OVCAR3; conditions: concentration 0.1 g/ml to […], alone
Method: as §1
as §2, with “Thus, combination of CDDP and propargylglycine (FIG. 5 I-K) was also examined.” left out

[4] = […] propargylglycine in culture medium, versus medium without PPG

Compound	change of IC50 of CDDP in combination with propargylglycine [1, 4]	change of IC50 of CDDP in combination with propargylglycine [2, 4]	effect on cell growth [1]	effect on cell growth ([1]; listed as PPG)	effect on cell growth [3]	effect on cell growth ([3]; listed as PPG)	effect on cell growth [2]	effect on cell growth ([2]; listed as PPG)
[NH2][Pt]([NH2])([Cl])[Cl] [CDDP, Cysplatin]	significantly decreased	significantly decreased	–	–	–	–	–	–
C#CCC(N)C(=O)O (centres unmarked) [Propargylglycine]	–	–	no effect	did not affect cell growth	no effect	did not affect cell growth	no effect	did not affect cell growth
